Assay results from US11414374B2, “Crystalline forms of vilanterol trifenatate and processes for their preparation” (Hovione Scientia Limited, priority 2017, dated 2022).
≈ marks a conversion by molar mass, not a printed value. Entries after “also recorded” stand apart in the source; their conditions may differ. Read-outs that look alike come from different tables or passages of the source. One block for each molecule: values may come before it.

Experiments:
Assay type in all cases: physicochemical
[1] = DSC - differential scanning calorimetry; conditions: for DSC (onset) endo. degradation: endothermic event: degradation; for DSC (onset) endo. solvent loss: endothermic event: solvent loss; for DSC (onset) endo. melting: endothermic event: melting
Experimental: The analysis was carried out using a DSC Q200 TA instruments equipped with a refrigerator cooling system (RCS40) and autosampler. The sample was weighed in an aluminum hermetic pan with pinhole. The analysis was performed heating the sample from 25° C. to 350° C. at 10° C./min.

[2] = Stability test (exposed sample 16 h), form by XRPD; conditions: resulting form
[3] = TGA / TGA-EGA thermogravimetric analysis with evolved gas analysis; conditions: for EGA: evolved solvent identified; for TGA overall weight loss: overall loss of the named solvent(s)
Experimental: The analysis was carried out using the Mettler Toledo TGA/DSC1. The sample was weighed in an aluminum pan hermetically sealed with an aluminum pierced cover. The analysis was performed heating the sample from 25° C. to 320° C. at 10° C./min. TGA-FTIR coupled with Thermo Nicoled is 10 spectometer. The analysis was carried out using the mettler toledo TGA/DSC1. The sample was weighed in an aluminum pan hermetically sealed with an aluminum pierced cover. The analysis was performed heating the sample from 25° C. to 320° C. at 10° C./min. The evolved gas is compared with ft-ir spectra database for identification.

[4] = Stability test (sealed vial 18 h), form by XRPD; conditions: resulting form
[5] = Storage stability of exposed powder at 25° C. and 60% RH for seven days, compared by XRPD; conditions: 60% RH and 25° C. for 7 days, exposed powder
Experimental: Approximately 30 mg of exposed powder of comparative form 1 and new forms II and III, respectively, were stored at 25′C and 60% RH for seven days. Each powder was then analyzed by XRPD and its diffraction pattern was compared with that of untreated sample.

[6] = Dynamic vapor sorption (DVS) analysis / hygroscopicity (EP 7.0 classification); conditions: for hygroscopicity classification according to the European Pharmacopoeia (EP, version 7.0) / mass increase by dynamic vapor sorption analysis (hygroscopicity): 80% RH and 25° C.; for mass increase by dynamic vapor sorption analysis (hygroscopicity): first sorption cycle, relative to 40% RH; for Change In Mass (%) Desorption / Change In Mass (%) Hysteresis / Change In Mass (%) Sorption: DVS, 25° C.; for stability / XRPD pattern after DVS analysis: compared with untreated sample
Experimental: The hygroscopicity value is directly obtained from the sorption row at 80% RH, cycle 1.
Hygroscopicity of a sample of each of new form II and comparative form I was determined using the protocol provided below in conditions of 80% RH and 25° C.
The sample was subjected to DVS measuring using SMS-DVS intrinsic. The kinetic moisture sorption measurement was performed at 25° C. and in a RH % range described in the following: • From 40% RH to 90% RH • Form 90% RH to 0% RH • From 0% RH to 90% RH • From 90% RH to 0% RH
The sample was analyzed by XRPD after the analysis.
The hygroscopicity was calculated using the following equation: % Weight Change=[(W2−W1)/W1]*100 W1: weight of sample at the start of the experiment (25° C. and 40% RH) W2: weight of sample at 25° C. and 80% RH in the first absorption cycle

[7] = Visual solubility in differing solvents (European Pharmacopeia 6.0 section 5.11); conditions: for solubility at 15 min: organic solvent or mixture, thermodynamic from solid; for visual solubility in water: water at 75° C.
Experimental: Visual solubility of certain forms (compounds) in differing solvents was assessed according to the procedure described in the European Pharmacopeia 6.0 section 5.11. p. The compound was shaken vigorously for 1 min and placed in a constant temperature device for 15 min at 25.0±0.5° C. If the compound was not completely dissolved, the shaking was repeated for 1 min and the tube placed in a constant temperature device for 15 min. 50 mg of compound was weighed in a stoppered tube, 0.05 mL of the solvent added and the Dissolving Procedure (see above) followed. If the compound was completely dissolved, it is very soluble. If the compound was not completely dissolved, a further 0.45 mL of the solvent was added and the Dissolving Procedure (see above) followed. […] If the compound was still not completely dissolved, still further 1.0 mL of the solvent was added and the Dissolving Procedure (see above) followed. If the compound was completely dissolved, it is soluble. If the compound was still not completely dissolved, another 3.5 mL of the solvent was added and the Dissolving Procedure (see above) followed. […] If the compound was still not completely dissolved, the compound is slightly soluble or very slightly soluble. In this case, and the suspension was heated up to the boiling point (max 80° C.) under stirring to verify the solubility at high temperature. The hot solution was afterwards cooled to room temperature to observe whether the compound precipitates. If the compound at room temperature was completely dissolved, it is soluble at high temperature. [table]

[8] = Micronization in fluid energy jet mill: particle size distribution and XRPD of product; conditions: for XRPD of micronized product versus starting material: after fluid energy jet milling
Excerpt: Vilanterol trifenatate form II is fed to a fluid energy jet mill at 10-100 g/h, operated with N2 at a pressure of 1 to 8 bar for the venturi and a pressure of 1 to 8 bar for the ring.

- DSC (onset) endo. Form 1 melting ([1]; endothermic event: Form 1 melting, listed as Form 5): endo. 134 °C Form 1
- DSC (onset) endo. degradation ([1]; listed as Form 5): endo. 188 °C degradation
- DSC (onset) endo. solvent loss ([1]; listed as Form 5): endo. 55-100 °C solvent loss
- Stability test (exposed sample 16 h) ([2]; listed as Form 5): Form 2
- EGA ([3]; listed as Form 5): Methylcyclohexane
- Stability test (sealed vial 18 h) ([4]; listed as Form 5): Strong crystanllinity
Structure (SMILES): OCc1cc([C@@H](O)CNCCCCCCOCCOCc2c(Cl)cccc2Cl)ccc1O [form V, vilanterol trifenatate]

- mass increase by dynamic vapor sorption analysis (hygroscopicity) [6]: 0.04%
- mass increase by dynamic vapor sorption analysis (hygroscopicity) ([6]; listed as polymorph II): 0.04%
- Change In Mass (%) Desorption ([6]; Cycle 1, target RH 0.0%): −0.03351%
- Change In Mass (%) Desorption ([6]; Cycle 1, target RH 10.0%): −0.01706%
- Change In Mass (%) Desorption ([6]; Cycle 1, target RH 20.0%): −0.00684%
- Change In Mass (%) Desorption ([6]; Cycle 1, target RH 30.0%): 0.00031%
- Change In Mass (%) Desorption ([6]; Cycle 1, target RH 40.0%): 0.00692%
- Change In Mass (%) Hysteresis ([6]; Cycle 1, target RH 40.0%): 0.00707%
- Change In Mass (%) Sorption ([6]; Cycle 1, target RH 40.0%): −0.00015%
- Change In Mass (%) Desorption ([6]; Cycle 1, target RH 50.0%): 0.01476%
- Change In Mass (%) Hysteresis ([6]; Cycle 1, target RH 50.0%): 0.00868%
- Change In Mass (%) Sorption ([6]; Cycle 1, target RH 50.0%): 0.00607%
- Change In Mass (%) Desorption ([6]; Cycle 1, target RH 60.0%): 0.02244%
- Change In Mass (%) Hysteresis ([6]; Cycle 1, target RH 60.0%): 0.00892%
- Change In Mass (%) Sorption ([6]; Cycle 1, target RH 60.0%): 0.01353%
- Change In Mass (%) Desorption ([6]; Cycle 1, target RH 70.0%): 0.03051%
- Change In Mass (%) Hysteresis ([6]; Cycle 1, target RH 70.0%): 0.00892%
- Change In Mass (%) Sorption ([6]; Cycle 1, target RH 70.0%): 0.0216%
- Change In Mass (%) Desorption ([6]; Cycle 1, target RH 80.0%): 0.04181%
- Change In Mass (%) Hysteresis ([6]; Cycle 1, target RH 80.0%): 0.0043%
- Change In Mass (%) Sorption ([6]; Cycle 1, target RH 80.0%): 0.0375%
- Change In Mass (%) Desorption ([6]; Cycle 1, target RH 90.0%): 0.05802%
- Change In Mass (%) Sorption ([6]; Cycle 1, target RH 90.0%): 0.05802%
- Change In Mass (%) Sorption ([6]; Cycle 2, target RH 0.0%): −0.03351%
- Change In Mass (%) Sorption ([6]; Cycle 2, target RH 10.0%): −0.0229%
- Change In Mass (%) Sorption ([6]; Cycle 2, target RH 20.0%): −0.01545%
- Change In Mass (%) Sorption ([6]; Cycle 2, target RH 30.0%): −0.00907%
- Change In Mass (%) Sorption ([6]; Cycle 2, target RH 40.0%): −0.00261%
- Change In Mass (%) Sorption ([6]; Cycle 2, target RH 50.0%): 0.00277%
- Change In Mass (%) Sorption ([6]; Cycle 2, target RH 60.0%): 0.01068%
- Change In Mass (%) Sorption ([6]; Cycle 2, target RH 70.0%): 0.01821%
- Change In Mass (%) Sorption ([6]; Cycle 2, target RH 80.0%): 0.03189%
- Change In Mass (%) Sorption ([6]; Cycle 2, target RH 90.0%): 0.04819%
- stability / XRPD pattern after DVS analysis [6]: showed stability after DVS analysis
- solubility at 15 min ([7]; ethanol, 50 °C, ethanol at 50° C., read-out: visual solubility in ethanol): 10 to 33 mg/mL (≈ 20.6 to 67.8 mM)
- visual solubility in water [7]: insoluble
- particle size distribution Dv90 after micronization ([8]; fluid energy jet mill, N2): below 10 μm
Structure (SMILES): OCc1cc([C@@H](O)CNCCCCCCOCCOCc2c(Cl)cccc2Cl)ccc1O [form II, vilanterol trifenatate]
- modifications in XRPD pattern after storage (structural stability) [5]: No significant modifications in XRPD pattern
- hygroscopicity classification according to the European Pharmacopoeia (EP, version 7.0) [6]: non-hygroscopic; also recorded: not hygroscopic
- XRPD of micronized product versus starting material [8]: identical to the one of the starting material

- DSC (onset) endo. degradation ([1]; listed as Form 4): endo. 189 °C degradation
- DSC (onset) endo. melting ([1]; listed as Form 4): endo. 76 °C melting
- Stability test (exposed sample 16 h) ([2]; listed as Form 4): Form 2
- EGA ([3]; listed as Form 4): Cyclohexane
- TGA overall weight loss ([3]; listed as Form 4): overall loss of 40% w/w/
- Stability test (sealed vial 18 h) ([4]; listed as Form 4): Form 12
Structure (SMILES): OCc1cc([C@@H](O)CNCCCCCCOCCOCc2c(Cl)cccc2Cl)ccc1O [form IV, vilanterol trifenatate]

- DSC (onset) endo. degradation ([1]; listed as Form 13): endo. 189 °C
- DSC (onset) endo. melting ([1]; listed as Form 13): endo. 105 °C
- DSC (onset) exo. recrystallization ([1]; exothermic event: recrystallization): exo. 93 °C
- Stability test (exposed sample 16 h) ([2]; listed as Form 13): Form 12
- TGA overall weight loss ([3]; listed as Form 13): One loss of 34% w/w
- Stability test (sealed vial 18 h) ([4]; listed as Form 13): Form 12 (almost
Structure (SMILES): OCc1cc([C@@H](O)CNCCCCCCOCCOCc2c(Cl)cccc2Cl)ccc1O [form XIII, vilanterol trifenatate]

- DSC (onset) endo. solvent loss + melting ([1]; endothermic event: solvent loss + melting (Form 6: + Form 2 melting; Form 14: + Form 3 melting), listed as Form 14): endo. 80 °C solvent
- DSC (onset) endo. solvent loss ([1]; listed as Form 14): endo. 58 °C solvent loss
- Stability test (exposed sample 16 h) ([2]; listed as Form 14): Form 3
- EGA ([3]; listed as Form 14): Methylcyclohexane
- TGA overall weight loss ([3]; listed as Form 14): loss of 26% w/w
- Stability test (sealed vial 18 h) ([4]; listed as Form 14): Form 3 (almost
Structure (SMILES): OCc1cc([C@@H](O)CNCCCCCCOCCOCc2c(Cl)cccc2Cl)ccc1O [form XIV, vilanterol trifenatate]

- hygroscopicity classification according to the European Pharmacopoeia (EP, version 7.0) [6]: non-hygroscopic
- mass increase by dynamic vapor sorption analysis (hygroscopicity) [6]: 0.19%
- stability / XRPD pattern after DVS analysis [6]: showed stability after DVS analysis
- solubility at 15 min ([7]; ethanol, 25 °C, ethanol at 25° C., read-out: visual solubility in ethanol): 10 to 33 mg/mL (≈ 20.6 to 67.8 mM)
- solubility at 15 min ([7]; methanol, 25 °C, methanol at 25° C., read-out: visual solubility in methanol): 33 to 100 mg/mL (≈ 67.8 to 206 mM)
- visual solubility in water [7]: insoluble
- particle size distribution Dv50 after micronization ([8]; fluid energy jet mill, N2): 4.2 μm
- particle size distribution Dv90 after micronization ([8]; fluid energy jet mill, N2): 9.6 μm
Structure (SMILES): OCc1cc([C@@H](O)CNCCCCCCOCCOCc2c(Cl)cccc2Cl)ccc1O [form I, 4-((1R)-2-((6-(2-((2,6-Dichlorophenyl)methoxy)ethoxy)hexyl)amino)-1-hydroxyethyl)-2-(hydroxymethyl)phenol triphenylacetate, reference compound]
- modifications in XRPD pattern after storage (structural stability) [5]: No significant modifications in XRPD pattern
- visual solubility in 1,4-dioxane ([7]; 1,4-dioxane at 25° C.): freely soluble (a further 0.45 mL of the solvent was added and the Dissolving Procedure (see above) followed. If the compound was completely dissolved, it is freely soluble.)
- XRPD of micronized product versus starting material [8]: identical to that of the starting material
